Results on two compounds are retold here after article PMC9853512 (RSC Advances, 2023).

Structures are written as SMILES. Converted amounts (≈) assume the structure as drawn. Where only a bound is given, the exact number is not on record here.

Common to all, as to format: cell-based
One assay concerns H. pylori strain SS1. Briefly: MIC, two-fold microdilution assay, H. pylori. To be noted: Helicobacter pylori, SS1, 48 h, read-out: MIC H. pylori SS1. (In general: In broth dilution the organism is exposed to a series of concentrations in liquid medium.)
The test system of assay [1] is C. albicans strain ATCC14053. Briefly: MIC, two-fold microdilution assay, C. albicans. The settings on record: Candida albicans, ATCC14053, 18 h, read-out: MIC C. Albicans ATCC14053.
The test system of assay [2] is S. aureus strain ATCC 29213. Briefly: MIC, two-fold microdilution assay, S. aureus. To be noted: Staphylococcus aureus, ATCC29213, 18 h, read-out: MIC S. Aureus ATCC 29213.
For assay [3], the system named is E. coli strain ATCC 25922. The assay is described as follows: MIC, two-fold microdilution assay, E. coli. The settings on record: Escherichia coli, ATCC25922, 18 h, read-out: MIC E. coli ATCC 25922.

The MIC is the least concentration at which growth counts as inhibited. Regarding `O=C1OCCN1N=Cc1ccc([N+](=O)[O-])o1` [FZD, 3-(5-nitrofurfurylideneamino)-2-oxazolidinone], the MIC with H. pylori strain SS1 was < 0.0976 µg/mL; in assay [1], > 50 µg/mL; in assay [2], 3.12 µg/mL (≈ 13.9 µM); in assay [3] it was 0.391 µg/mL (≈ 1.73 µM).
Consider `O=C1CN(N=Cc2ccc([N+](=O)[O-])o2)C(=O)N1` [NFT, 1-(((5-nitro-2-furanyl)methylene)amino)-2,4-imidazolidinedione], for which the MIC in assay [1] was > 50 µg/mL; in assay [2], 25 µg/mL (≈ 105 µM); in assay [3], 12.5 µg/mL (≈ 52.5 µM).
